The values below come from publication PMC9069370, “Integrated Design of a Membrane‐Lytic Peptide‐Based Intravenous Nanotherapeutic Suppresses Triple‐Negative Breast Cancer” (Advanced Science, 2022).

Like-named read-outs stand apart in the source and are kept apart here. Square brackets hold non-standard residues; d marks the D form. Peptide text beside a SMILES is read from it.

One series relates to MCF‐10A. Briefly: cells. In kind it is cell-based, human. Particulars: non-cancerous cells; 2D culture, MTT, 72 h incubation; library peptides n = 2; D-enantiomers and small molecules replicated six times; read-out: IC50 (µM) MCF-10A. An excerpt: (§1) […], and MCF-10A cells were maintained in MEGM with supplements and growth factors bovine pituitary extract, hydrocortisone, human epidermal growth factor, insulin, and gentamicin/amphotericin-B.

The subject of series [1] is various. To be noted: read-out: IC50 [µM], various; 2D and 3D tumorspheres; summary of Figures 2, 3 and 5. An excerpt: The final concentration of DMSO in each well was either 0.5% or 0% and this amount was present in the untreated control.
Series [2] relates to HMLER‐shEcad tumorspheres. Description: cells. Type of series: cell-based, human. To be noted: 3D multicellular spheroids; reducing tumorsphere cell viability by 90%; read-out: IC90 against HMLER‐shEcad tumorspheres.
The test system of another series is MCF‐10A mammospheres. Description: Mammosphere viability assay (TOX8). In kind it is cell-based, human. To be noted: 3D non‐tumorigenic mammospheres.
The next series relates to human red blood cells. Briefly: Haemolysis (human red blood cells). In kind it is cell-based. To be noted: PBS, 37 °C, 1 h. On the procedure: Fresh human red blood cells were obtained from Interstate Blood Bank, Inc., and thoroughly washed in PBS until the supernatant was clear. The peptide was serially diluted in PBS starting at a concentration of 200 µM. […] As a positive lysis control, 1% triton was used. […] After centrifugation, 10 µL of supernatant was transferred to 90 µL of ddH2O in a fresh 96‐well plate.

In the next series the test system is HCT116. To be noted: 2D; ref [69]; cited from earlier work. From the text:
(§2) Table 1 ACP activity comparison. Reported in vitro anticancer activity (IC50) of ACPs | column: IC50 [µM]

The conditions of series [3]: cited from earlier work. From the text: (§3) Table 1 ACP activity comparison. Reported in vitro anticancer activity (IC50) of ACPs | column: Assay and Notes
The subject of series [4] is various. Particulars: 2D; ref [70]; cited from earlier work.
Text: as §2

Another series has as its system A20, AT84, MRC‐5. Particulars: ref [22], [23], [57], [63]; cited from earlier work.
Text: as §2

Another series relates to A549. Particulars: 2D; ref [68]; cited from earlier work.
Text: as §2

The subject of another series is tumor in mouse. Particulars: dose: 25 mg kg^−1; ref [68]; cited from earlier work.
Text: as §3

Series [5] is described as follows: ANTS/DPX liposome leakage assay. To be noted: 0.5 mM vesicles, peptide 0-20 µM, 3 h incubation, lipid per peptide. The method, boiled down:
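Extruded 0.1 µm POPC or POPC/POPG (3:1) vesicles were loaded with 5 mM ANTS and 12.5 mM DPX, gel-filtered, then used at 0.5 mM lipid with titrated peptide at pH 7.4 or pH 4.8 (acidified PBS). Leakage was read at ex 350/em 510 nm after 3 h against 10% Triton maximum, expressed as lipid/peptide ratio for 50% leakage.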

A short description of series [6]: Tryptophan fluorescence and circular dichroism binding to vesicles. To be noted: binding to both POPC and POPG vesicles; 50 µM peptide, 10 mM phosphate buffer, pH 7.0. As for the experimental part:
50 µM ACP peptides and varied concentrations (concentrations: 0, 25, 50, 100, 150, 200, 250, 500, 1250, and 2500 µM) of POPC or POPC:POPG (3:1 ratio) large unilamellar vesicles were prepared in 10 mM phosphate buffer (pH 7.0). The solutions were measured after 1 h of incubation. Excitation was fixed at 280 nm (slit 9 nm) and emission was collected from 300 to 450 nm (slit 9 nm). The spectra were recorded using Cytation 5 Cell Imaging Multi‐Mode Reader from BioTek and were averaged by three scans.
Extended Data Figure 9 | Peptide-lipid interactions. Conformational change of tryptophan fluorescence quenching of 50 µM DHK peptide with titrated a, POPC or b, POPG LUV concentration (0, 12.5, 25, 50, […]
POPC or d, POPG LUV against elevated temperature (20, 45, 70, and 95 °C). The black solid line represents peptide-only in buffer at 20 °C. All the experiments were performed in 10 mM phosphate buffer, pH 7.0.
(1 picture or pasted object on this page, not shown here)
On the technique in general: Circular dichroism is widely used to follow secondary structure.

In a further series the test system is HMLER. Description: cells. In kind it is cell-based, human. Particulars: 2D culture, MTT, 72 h incubation; library peptides average of two independent experiments (n = 2); D-enantiomers and small molecules replicated six times; read-out: IC50 (µM) HMLER.
Text: as §1

Series [7] relates to HMLER‐shEcad. Description: cells. Type of series: cell-based, human. Particulars: 2D culture, MTT, 72 h incubation; library peptides average of two independent experiments (n = 2); D-enantiomers and small molecules replicated six times; read-out: IC50 (µM) HMLER-shEcad.
Text: as §1

A further series concerns U2OS. Type of series: cell-based, human. To be noted: 2D culture, MTT, 72 h incubation; library peptides n = 2; D-enantiomers and small molecules replicated six times; read-out: IC50 (µM) U2OS.
The test system of series [8] is HMLER‐shEcad. Description: Resistance formation after prolonged drug exposure, 2D culture. In kind it is cell-based, human. Particulars: 2D HMLER‐shEcad after 28 days co‐incubation with 0.4 µM d‐DHK. As for the experimental part:
Cancer stem cells can survive treatment, gain resistance, and reseed tumors, presenting a major challenge for chemotherapy.^[ [2] ^] […] Drugs were added with medium every 3–4 days, maintaining smooth cell growth, and 125 000 cells were split into new T25 flasks with a total volume of 5 mL once per week.

In a further series the test system is HEK293T. Briefly: cells. To be noted: non-cancerous cells; 2D culture, MTT, 72 h incubation; library peptides n = 2; D-enantiomers and small molecules replicated six times; read-out: IC50 (µM) HEK293T. Type of series: cell-based, human.
Series [9] is described as follows: Tryptophan fluorescent binding assay. Particulars: tryptophan fluorescence; 50 µM peptide, lipid titrated 0-5000 µM; phosphate buffered saline 1X, pH 7.4; values as lipid per peptide. The method, boiled down: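 Tryptophan fluorescence was used to follow binding of peptide, fixed at 50 µM, to large unilamellar vesicles of POPC:POPG (3:1 ratio) titrated into phosphate buffered saline (1X, pH 7.4). After 1 h incubation, spectra were taken on a BioTek Cytation 5 reader with excitation at 280 nm and emission at 300 to 450 nm (9 nm slits), averaging three scans.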

A further series concerns MCF‐7. To be noted: 2D; ref [11], [19], [47]; cited from earlier work.
Text: as §2

Setting [10] is: PBS 1X pH 7.4, high ratio = more potent.

On to `CC(C)C[C@H](NC(=O)CN)C(=O)N[C@@H](CC(C)C)C(=O)N[C@@H](CCC(=O)O)C(=O)N[C@@H](CC(C)C)C(=O)N[C@@H](CC(C)C)C(=O)N[C@@H](CCC(=O)O)C(=O)N[C@@H](CC(C)C)C(=O)N[C@@H](CC(C)C)C(=O)N[C@@H](CC(C)C)C(=O)N[C@@H](CCCCN)C(=O)N[C@@H](C)C(=O)N[C@@H](C)C(=O)NCC(=O)N[C@@H](Cc1c[nH]c2ccccc12)C(N)=O` [EEK] (H-GLLELLELLLKAAGW-NH2), for which the IC50 is more than 200 µM in the series with MCF‐10A and 1 to 27 µM with various [1]. Also, the IC90 in series [2] turned out to be 23 ± 3 µM. For the same molecule, the “IC90 against MCF‐10A mammospheres” value with MCF‐10A mammospheres stood at 141 ± 11 µM. Further, in the series on human red blood cells, the “human red blood cell lysis” value is given as “only minimal human red blood cell lysis below 90 µM”.

Consider LL37, for which the IC50 in the series with HCT116 is 40 µM. In series [3] (ref [69]), the toxicity note was 2D; Vascular toxicity.

Regarding Aurein 1.2, the IC50 in the series with various [4] was 10 to 100 µM.

Turning to LTX‐315, the concentration for half-maximal inhibition (IC50) in the series with A20, AT84, MRC‐5 was 8 to 34 µM.

Turning to Magainin II, the IC50 in the series with A549 is 45 µM. For the same molecule, the “outcome in mouse xenograft model” value with tumor in mouse is 2D and mouse xenograft model (dose: 25 mg kg^−1); The tumor in mouse was smaller and still growing in 40 days.

Regarding `CC(C)C[C@H](NC(=O)CN)C(=O)N[C@@H](CC(C)C)C(=O)N[C@@H](CC(=O)O)C(=O)N[C@@H](CC(C)C)C(=O)N[C@@H](CC(C)C)C(=O)N[C@@H](Cc1c[nH]cn1)C(=O)N[C@@H](CC(C)C)C(=O)N[C@@H](CC(C)C)C(=O)N[C@@H](CC(C)C)C(=O)N[C@@H](CCCCN)C(=O)N[C@@H](C)C(=O)N[C@@H](C)C(=O)NCC(=O)N[C@@H](Cc1c[nH]c2ccccc12)C(N)=O` [DHK] (H-GLLDLLHLLLKAAGW-NH2), in series [5] (HCl-adjusted PBS 1X pH 4.8), the “Peptide Concentration-induced 50 % ANTS/DPX leakage at pH 4.8 (L/P), 3POPC/1POPG Vesicle” value was found to be 183 L/P. In series [5] (HCl-adjusted PBS 1X pH 4.8), the “Peptide Concentration-induced 50 % ANTS/DPX leakage at pH 4.8 (L/P), POPC Vesicle” value is given as 47 L/P. For the same molecule, the “Peptide Concentration-induced 50 % ANTS/DPX leakage at pH 7.4 (L/P), 3POPC/1POPG Vesicle” value in [5] (setting [10]) is listed as 469 L/P. The “Peptide Concentration-induced 50 % ANTS/DPX leakage at pH 7.4 (L/P), POPC Vesicle” value in [5] (setting [10]) worked out at 747 L/P. Also, in series [6], the “∆G binding” value is -8.8 ± 1.2 kcal/mol. In addition, the IC50 in the series on HMLER was found to be 1.75 ± 0.49 µM; with MCF‐10A, 5.05 ± 1.34 µM; in the series with HMLER‐shEcad [7], 1.02 ± 0.12 µM; in the series on U2OS, 20.4 ± 2.05 µM; in the series on HEK293T, 7.3 ± 0.42 µM. In addition, the “shift in IC50 after prolonged exposure to ACP” value with HMLER‐shEcad [8] is “no shift in IC50”. The “Lipid Concentration-induced 50% Peptide Binding (L/P), 3POPC/1POPG Vesicle” value in [9] was 0.38 L/P. Further, the “Lipid Concentration-induced 50% Peptide Binding (L/P), POPC Vesicle” value in [9] came out at 0.20 L/P. In the series with human red blood cells (one value for DHK, d‐DHK and d‐EEK together), this molecule returned an HC50 of 14 ± 5 µM.

Regarding `CC(C)[C@H](NC(=O)[C@H](CCCCN)NC(=O)[C@@H](NC(=O)[C@H](CCCCN)NC(=O)[C@@H](NC(=O)[C@H](CCCCN)NC(=O)[C@@H](NC(=O)[C@@H]1CCCN1C(=O)[C@H]1CCCN1C(=O)[C@@H](NC(=O)[C@H](CCCCN)NC(=O)[C@@H](NC(=O)[C@H](CCCCN)NC(=O)[C@@H](NC(=O)[C@H](CCCCN)NC(=O)[C@@H](NC(=O)[C@@H](N)CCCCN)C(C)C)C(C)C)C(C)C)C(C)C)[C@@H](C)O)C(C)C)C(C)C)C(=O)N[C@@H](CCCCN)C(N)=O` [SVS‐1] (H-KVKVKVKV[dP]PTKVKVKVK-NH2; N-terminus and C-terminus assumed), the IC50 in the series on MCF‐7 is 11 µM. For the same molecule, the drug resistance note in series [3] (ref [11], [19], [47]) is reported as 2D; in vitro drug resistance was observed.

What is called IC50 is the concentration needed to halve the response being measured. What is called IC90 is the concentration at which the effect reaches the 90% level. By HC50 is commonly meant the concentration that lyses half of the red blood cells. A lower HC50 goes with stronger haemolysis.
